Molecular target: T1, human TRPV1 (Homo sapiens, UniProt Q8NER1)
T1 construct: expressed in transfected cells; host or cells: CHO-K1
Test: Measurement of capsaicin-induced Ca influx in human TRPV1 transformed CHO cell line using FDSS-6000
Assay type: cell-based
Conditions: concentration at which the capsaicin concentration-reaction curve is shifted two times to the right, human TRPV1 transformed CHO cells

T1 sequence (Q8NER1 whole entry): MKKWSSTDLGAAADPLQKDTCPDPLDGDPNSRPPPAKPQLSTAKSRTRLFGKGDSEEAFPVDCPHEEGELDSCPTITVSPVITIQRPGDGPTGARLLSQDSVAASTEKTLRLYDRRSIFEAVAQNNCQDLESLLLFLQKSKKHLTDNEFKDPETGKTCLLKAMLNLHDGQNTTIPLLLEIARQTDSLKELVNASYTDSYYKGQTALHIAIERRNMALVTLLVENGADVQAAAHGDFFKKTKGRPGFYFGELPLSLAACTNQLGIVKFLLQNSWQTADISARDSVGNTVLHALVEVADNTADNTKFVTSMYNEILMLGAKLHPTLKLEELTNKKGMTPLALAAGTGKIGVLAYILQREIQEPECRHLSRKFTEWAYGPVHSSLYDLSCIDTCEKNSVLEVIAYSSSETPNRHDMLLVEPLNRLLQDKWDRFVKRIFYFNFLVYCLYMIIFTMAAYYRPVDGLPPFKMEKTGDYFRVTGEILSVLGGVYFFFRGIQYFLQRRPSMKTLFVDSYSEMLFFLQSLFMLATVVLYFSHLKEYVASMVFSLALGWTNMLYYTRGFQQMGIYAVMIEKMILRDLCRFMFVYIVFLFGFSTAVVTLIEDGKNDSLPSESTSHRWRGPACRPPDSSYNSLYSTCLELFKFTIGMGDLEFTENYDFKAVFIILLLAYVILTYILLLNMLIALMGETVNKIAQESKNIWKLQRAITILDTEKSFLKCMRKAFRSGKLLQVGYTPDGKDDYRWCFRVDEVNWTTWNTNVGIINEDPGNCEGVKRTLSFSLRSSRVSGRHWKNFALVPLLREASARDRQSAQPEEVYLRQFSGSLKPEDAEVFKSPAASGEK

SMILES	A2 VALUE
CCC(F)(F)C(=O)N1CC/C(=C\C(=O)Nc2cccc3c2CC(O)CN3)c2ccc(C(F)(F)F)cc21 (centres unmarked) [Example 184, (E)-2-(1-(2,2-difluorobutanoyl)-7-trifluoromethyl-2,3-dihydroquinolin-4(1H)-ylidene)-N-(3-hydroxy-1,2,3,4-tetrahydroquinolin-5-yl)acetamide]	A (compounds of the present invention having an A2 value of less than 100 nM are represented by A)
CCC(F)(F)C(=O)N1CC/C(=C\C(=O)Nc2cccc3c2CC(O)C(=O)N3)c2ccc(C(F)(F)F)cc21 (centres unmarked) [Example 185, (E)-2-(1-(2,2-difluorobutanoyl)-7-trifluoromethyl-2,3-dihydroquinolin-4(1H)-ylidene)-N-(3-hydroxy-2-oxo-1,2,3,4-tetrahydroquinolin-5-yl)acetamide]	A (compounds of the present invention having an A2 value of less than 100 nM are represented by A)
CCCCC(=O)N1CCC/C(=C\C(=O)Nc2cccc3c2CC(O)CC3)c2ccc(C(F)(F)F)cc21 (centres unmarked) [Example 190, (E)-2-(8-trifluoromethyl-1-pentanoyl-1,2,3,4-tetrahydro-5H-benzo[b]azepin-5-ylidene)-N-(7-hydroxy-5,6,7,8-tetrahydronaphthalen-1-yl)acetamide]	A (compounds of the present invention having an A2 value of less than 100 nM are represented by A)
O=C(/C=C1\CCCNc2cc(C(F)(F)F)ccc21)Nc1ccc2cccnc2c1 [Example 191, (E)-2-(8-trifluoromethyl-1,2,3,4-tetrahydro-5H-benzo[b]azepin-5-ylidene)-N-(quinolin-7-yl)acetamide]	A (compounds of the present invention having an A2 value of less than 100 nM are represented by A)
CCCCC(=O)N1CCC/C(=C\C(=O)Nc2ccc3cccnc3c2)c2ccc(C(F)(F)F)cc21 [Example 192, (E)-2-(1-pentanoyl-8-trifluoromethyl-1,2,3,4-tetrahydro-5H-benzo[b]azepin-5-ylidene)-N-(quinolin-7-yl)acetamide]	A (compounds of the present invention having an A2 value of less than 100 nM are represented by A)
O=C(/C=C1\CCCN(C(=O)C2CCCC2)c2cc(C(F)(F)F)ccc21)Nc1ccc2cccnc2c1 [Example 193, (E)-2-(1-cyclopentanecarbonyl-8-trifluoromethyl-1,2,3,4-tetrahydro-5H-benzo[b]azepin-5-ylidene)-N-(quinolin-7-yl)acetamide]	A (compounds of the present invention having an A2 value of less than 100 nM are represented by A)
Cc1ccc(S(=O)(=O)N2CCC/C(=C\C(=O)Nc3ccc4cccnc4c3)c3ccc(C(F)(F)F)cc32)cc1 [Example 194, (E)-2-(1-(4-methylbenzenesulfonyl)-8-trifluoromethyl-1,2,3,4-tetrahydro-5H-benzo[b]azepin-5-ylidene)-N-(quinolin-7-yl)acetamide]	B (compounds having an A2 value of 100 nM or more are represented by B)
CC(=O)N1CCC/C(=C\C(=O)Nc2ccc3cccnc3c2)c2ccc(C(F)(F)F)cc21 [Example 195, (E)-2-(1-acetyl-8-trifluoromethyl-1,2,3,4-tetrahydro-5H-benzo[b]azepin-5-ylidene)-N-(quinolin-7-yl)acetamide]	B (compounds having an A2 value of 100 nM or more are represented by B)
CN1CCC/C(=C\C(=O)Nc2ccc3cccnc3c2)c2ccc(C(F)(F)F)cc21 [Example 196, (E)-2-(1-methyl-8-trifluoromethyl-1,2,3,4-tetrahydro-5H-benzo[b]azepin-5-ylidene)-N-(quinolin-7-yl)acetamide]	A (compounds of the present invention having an A2 value of less than 100 nM are represented by A)
O=C(/C=C1\CCCN(CC2CCCC2)c2cc(C(F)(F)F)ccc21)Nc1ccc2cccnc2c1 [Example 197, (E)-2-(1-cyclopentylmethyl-8-trifluoromethyl-1,2,3,4-tetrahydro-5H-benzo[b]azepin-5-ylidene)-N-(quinolin-7-yl)acetamide]	A (compounds of the present invention having an A2 value of less than 100 nM are represented by A)
CN1CCC/C(=C\C(=O)Nc2cccc3ccc(O)cc23)c2ccc(C(F)(F)F)cc21 [Example 198, (E)-2-(1-methyl-8-trifluoromethyl-1,2,3,4-tetrahydro-5H-benzo[b]azepin-5-ylidene)-N-(7-hydroxynaphthalen-1-yl)acetamide]	A (compounds of the present invention having an A2 value of less than 100 nM are represented by A)
CN1CCC/C(=C\C(=O)Nc2cccc3c2CC(O)CC3)c2ccc(C(F)(F)F)cc21 (centres unmarked) [Example 199, (E)-2-(1-methyl-8-trifluoromethyl-1,2,3,4-tetrahydro-5H-benzo[b]azepin-5-ylidene)-N-(7-hydroxy-5,6,7,8-tetrahydronaphthalen-1-yl)acetamide]	A (compounds of the present invention having an A2 value of less than 100 nM are represented by A)
O=C(/C=C1\CCN(c2ncc(CO)cc2Cl)c2cc(C(F)(F)F)ccc21)Nc1cccc2c1CC(O)CC2 (centres unmarked) [Example 200, (E)-2-(1-(3-chloro-5-hydroxymethyl-pyridin-2-yl)-7-trifluoromethyl-2,3-dihydroquinolin-4(1H)-ylidene)-N-(7-hydroxy-5,6,7,8-tetrahydronaphthalen-1-yl)acetamide]	A (compounds of the present invention having an A2 value of less than 100 nM are represented by A)
O=C(/C=C1\CCOc2cc(C(F)(F)F)ccc21)Nc1cccc2c1CCCC2 [Example 202, (E)-2-(7-trifluoromethyl-chroman-4-ylidene)-N-(5,6,7,8-tetrahydronaphthalen-1-yl)acetamide]	A (compounds of the present invention having an A2 value of less than 100 nM are represented by A)
Cc1sc2cnccc2c1NC(=O)/C=C1\CCOc2cc(C(F)(F)F)ccc21 [Example 204, (E)-2-(7-trifluoromethyl-chroman-4-ylidene)-N-(2-methylthieno[2,3-c]pyridin-3-yl)acetamide]	A (compounds of the present invention having an A2 value of less than 100 nM are represented by A)
CC(C)c1ccc2c(c1)OCC/C2=C\C(=O)Nc1cccc2c1CC(O)CC2 (centres unmarked) [Example 206, (E)-2-(7-isopropyl-chroman-4-ylidene)-N-(7-hydroxy-5,6,7,8-tetrahydronaphthalen-1-yl)acetamide]	A (compounds of the present invention having an A2 value of less than 100 nM are represented by A)
CC(C)c1ccc2c(c1)OCC/C2=C\C(=O)Nc1cccc2c1CC(O)CN2 (centres unmarked) [Example 207, (E)-2-(7-isopropyl-chroman-4-ylidene)-N-(3-hydroxy-1,2,3,4-tetrahydroquinolin-5-yl)acetamide]	A (compounds of the present invention having an A2 value of less than 100 nM are represented by A)
O=C(/C=C1\CCOc2cc(Cl)ccc21)Nc1cccc2c1CC(O)CC2 (centres unmarked) [Example 208, (E)-2-(7-chloro-chroman-4-ylidene)-N-(7-hydroxy-5,6,7,8-tetrahydronaphthalen-1-yl)acetamide]	A (compounds of the present invention having an A2 value of less than 100 nM are represented by A)
O=C(/C=C1\CCOc2cc(Cl)ccc21)Nc1cccc2c1CC(O)CN2 (centres unmarked) [Example 209, (E)-2-(7-chloro-chroman-4-ylidene)-N-(3-hydroxy-1,2,3,4-tetrahydroquinolin-5-yl)acetamide]	A (compounds of the present invention having an A2 value of less than 100 nM are represented by A)
O=C(/C=C1\CCOc2cc(OC(F)(F)F)ccc21)Nc1cccc2c1CC(O)CC2 (centres unmarked) [Example 210, (E)-2-(7-trifluoromethoxy-chroman-4-ylidene)-N-(7-hydroxy-5,6,7,8-tetrahydronaphthalen-1-yl)acetamide]	A (compounds of the present invention having an A2 value of less than 100 nM are represented by A)
O=C(/C=C1\CCOc2cc(OC(F)(F)F)ccc21)Nc1cccc2c1CC(O)CN2 (centres unmarked) [Example 211, (E)-2-(7-trifluoromethoxy-chroman-4-ylidene)-N-(3-hydroxy-1,2,3,4-tetrahydroquinolin-5-yl)acetamide]	A (compounds of the present invention having an A2 value of less than 100 nM are represented by A)
O=C(/C=C1\CCOc2cc(OC(F)(F)C(F)F)ccc21)Nc1cccc2c1CC(O)CC2 (centres unmarked) [Example 212, (E)-2-(7-(1,1,2,2-tetrafluoroethoxy)-chroman-4-ylidene)-N-(7-hydroxy-5,6,7,8-tetrahydronaphthalen-1-yl)acetamide]	A (compounds of the present invention having an A2 value of less than 100 nM are represented by A)
O=C(/C=C1\CCOc2cc(OC(F)(F)C(F)F)ccc21)Nc1cccc2c1CC(O)CN2 (centres unmarked) [Example 213, (E)-2-(7-(1,1,2,2-tetrafluoroethoxy)-chroman-4-ylidene)-N-(3-hydroxy-1,2,3,4-tetrahydroquinolin-5-yl)acetamide]	A (compounds of the present invention having an A2 value of less than 100 nM are represented by A)
O=C(/C=C1\CCOc2cc(C(F)(F)F)c(F)cc21)Nc1cccc2c1CC(O)CC2 (centres unmarked) [Example 214, (E)-2-(6-fluoro-7-trifluoromethyl-chroman-4-ylidene)-N-(7-hydroxy-5,6,7,8-tetrahydronaphthalen-1-yl)acetamide]	A (compounds of the present invention having an A2 value of less than 100 nM are represented by A)
O=C(/C=C1\CCOc2cc(C(F)(F)F)c(F)cc21)Nc1cccc2c1CC(O)CN2 (centres unmarked) [Example 215, (E)-2-(6-fluoro-7-trifluoromethyl-chroman-4-ylidene)-N-(3-hydroxy-1,2,3,4-tetrahydroquinolin-5-yl)acetamide]	A (compounds of the present invention having an A2 value of less than 100 nM are represented by A)
O=C(/C=C1\CCOc2cc(C(F)(F)F)ccc21)Nc1ccc2sc(CO)nc2c1 [Example 216, (E)-2-(7-trifluoromethyl-chroman-4-ylidene)-N-(2-hydroxymethyl-1,3-benzothiazolo-5-yl)acetamide]	A (compounds of the present invention having an A2 value of less than 100 nM are represented by A)
